Reference: PMC10821532, “Sex and Cross-Sex Testosterone Treatment Alters Gamma-Hydroxybutyrate Acid Toxicokinetics and Toxicodynamics in Rats” (Pharmaceutics, 2024)

Key:
MCT2 = target: MCT2; parameters: method as in PMID 19929853; conditions: cited from earlier work
[1] = GHB toxicokinetic study, i.v. bolus, plasma and urine up to 8 h, noncompartmental analysis; format: in vivo, Sprague Dawley rats; conditions: 1 mg/kg AR-C 155858 iv 5 min after 1500 mg/kg GHB iv vs GHB alone
Procedure: (§1) Male and female Sprague Dawley (SD) rats, ovariectomized (OVX) females, and castrated (CST) males were obtained from Charles River (Wilmington, MA, USA) at 8 weeks of age. The animals were housed under controlled temperature and humidity with an artificial 12 h light/dark cycle, and food and water were available ad libitum. The animals were acclimatized for at least one week before experiments. Hormone treatment was conducted by implanting OVX female and CST male rats subcutaneously with 60-day release pellets containing 7.5 mg testosterone or corresponding placebo pellets (Innovative Research of America) at 10 weeks of age. After 21 days of hormone exposure, rats were utilized in toxicokinetic studies. Age-matched male and female rats were used as control groups. Female rats in the estrus stage were selected for the study. Estrus cycle stages of female rats were monitored daily by vaginal lavage smear, as described in previously published literature. The Institutional Animal Care and Use Committee (IACUC) at the University of the Pacific approved all experiments.
(§2) Jugular vein cannulas were surgically implanted under anesthesia with ketamine/xylazine. Cannulas were flushed daily with heparinized saline to maintain patency. Rats were allowed a minimum of 72 h for recovery from surgery before the experiments were conducted. GHB was administered intravenously as a 1000 mg/kg i.v. bolus or 1500 mg/kg iv bolus with or without AR-C155858 (1 mg/kg i.v. bolus) via a jugular vein cannula to the animals at 13 weeks of age (N = 5–7 per group). Rats were dosed in metabolic cages with ad libitum access to water to allow for the concurrent collection of blood and urine samples for up to 8 h. GHB was administered as a 300 mg/mL solution in sterile water, and the time of administration was considered as time 0. AR-C155858 was administered as a 1 mg/mL solution in 10% cyclodextrin in normal saline 5 min after GHB administration. Blood samples (200 μL) were taken from the jugular vein cannula at different time points: 5, 10, 20, 30, 60, 90, 120, 180, 240, 270, 300, and 330 min for 1000 mg/kg and 10, 30, 60, 90, 120, 180, 240, 270, 300, 330, 360, and 390/480 min for 1500 mg/kg bolus with or without AR-C155858. Plasma samples were separated by centrifugation and stored at −20 °C. Urine samples were collected at 120, 240, and 360 min for 1000 mg/kg and 120, 240, and 390/480 min for 1500 mg/kg bolus with or without AR-C155858 post-dose; the total urine volume was determined, and the samples were stored at −20 °C.
GHB in plasma and urine were quantified using a validated liquid chromatography/tandem mass spectrometry (LC/MS/MS) assay that was described previously. Briefly, for the preparation of plasma standards and quality controls (QCs), 5 μL of GHB-d6 and 5 μL of standard stock solution or QC stock solution were added to 45 μL of blank plasma. For each unknown plasma sample, 5 μL of GHB-d6 was added to 50 μL of plasma. Protein precipitation was then performed by the addition of 800 μL of acetonitrile with 0.1% formic acid, followed by centrifugation at 10,000 rpm for 20 min. 750 μL of the supernatant was transferred to a clean disposable glass tube and evaporated using a MultiVap Nitrogen Evaporator (Organomation, Berlin, MA, USA) under a nitrogen stream. Dried samples were reconstituted in 250 μL of 95:5 double-distilled water—acetonitrile with 0.1% acetic acid. For urine standards and QCs, 25 μL of blank urine, 5 μL of standard or QC stock solution, 5 μL of GHB-d6, and 465 μL of double-distilled water were mixed. For unknown urine samples, 25 μL of the sample was added to 5 μL of GHB-d6 and 470 μL of double-distilled water. The same LC/MS/MS method was used for GHB plasma and urine analyses. LC/MS/MS equipment consisted of an Agilent 1200 series UPLC consisting of an online degasser, binary pump, and autosampler (Agilent Technologies, Santa Clara, CA, USA) connected to a Agilent 6460 Triple Quad Mass Spectrometer. […]

Sprague Dawley (SD) rats = experiment: Sedative/hypnotic effect (sleep time, RRR-LRR) after i.v. GHB; format: in vivo
Procedure: as §2
The sedative/hypnotic effects (sleep time) were determined, as described in a previous publication. The sedative/hypnotic duration effect of GHB was determined as the difference between the offset of the sedative/hypnotic effect (RRR) and the onset of the sedative/hypnotic effect (LRR).

MCT4 = tested on: MCT4; parameters: method as in PMID 19929853; conditions: cited from earlier work
[2] = Plasma testosterone level after 21 days of testosterone pellet treatment (LC-MS); format: in vivo, Sprague Dawley rats; conditions: Sprague Dawley, rat, sc, 7.5 mg 60-day release testosterone pellet s.c.
Procedure: as §1
Testosterone plasma concentrations were quantified using a validated LC-MS assay, as described previously. […] The same LC/MS/MS equipment was used for quantification, as mentioned above. […]

SMILES	Ki (MCT2) [µM]	Effect of AR-C 155858 on GHB fe [1]	Effect of AR-C 155858 on GHB metabolic clearance [1]	Effect of AR-C 155858 on GHB renal clearance [1]	Effect of AR-C155858 on GHB AUC ([1]; all animal groups)	Effect of AR-C155858 on GHB total clearance ([1]; all animal groups)	Effect of AR-C 155858 on GHB sleep time (Sprague Dawley (SD) rats; 1 mg/kg AR-C 155858 iv 5 min after 1500 mg/kg GHB iv vs GHB alone)	Sleep time after AR-C 155858 administration (Sprague Dawley (SD) rats; 1500 mg/kg GHB iv + 1 mg/kg AR-C 155858 iv 5 min after GHB, all populations) [min]	Inhibitory effect on MCT4 (MCT4)	concentration at 21 days ([2]; female, OVX rats) [ng/mL]	concentration at 21 days ([2]; male, CST rats) [ng/mL]
Cc1n[nH]c(C)c1Cc1sc2c(c1C(=O)N1C[C@H](O)CO1)c(=O)n(C)c(=O)n2CC(C)C [AR-C 155858, 6-[(3,5-Dimethyl-1H-pyrazol-4-yl)methyl]-5-[[(4S)-4-hydroxy-2-isoxazolidinyl]carbonyl]-3-methyl-1-(2-methylpropyl)thieno [2,3-d]pyrimidine-2,4(1H,3H)-dione]	~0.01	significantly increased fe in testosterone-treated animal groups	did not yield any statistically significant differences in metabolic clearance across all animal groups, except in intact males	statistically significant increase in renal clearance across all animal groups, except for intact males	lower AUC	higher total clearance	significant reduction in sleep time across all animal groups	0 to 38	no inhibitory effect on MCT4	–	–
C[C@]12CC[C@H]3[C@@H](CCC4=CC(=O)CC[C@@]43C)[C@@H]1CC[C@@H]2O [Testosterone, testosterone]	–	–	–	–	–	–	–	–	–	6.22 ± 2.63	5.44 ± 1.96
